Measured values from publication PMC3144492 (Biochemistry, 2011).

Test system: SpUP
Conditions: 50 mM phosphate (co-substrate), 50 mM HEPES, pH 7.5

O=c1ccn([C@@H]2O[C@H](CO)[C@@H](O)[C@H]2O)c(=O)[nH]1 [uridine] was tested. Which Km did it give?
The Km was 171 ± 5 µM.
